Measurements reported in PubChem BioAssay (NCI).
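Method: 48-hour compound exposure of cells in 96-well plates, five concentrations, linear interpolation of endpoints. GI50 = concentration required for 50% inhibition of growth. The concentration for full growth arrest is given as TGI.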

Experiments:
Test in all cases: growth of human tumour cells (NCI), 48 h
[1] = system: SN12C renal
[2] = system: SF-539 CNS
[3] = system: NCI-H226 lung
[4] = system: HS 578T breast
[5] = system: KM12 colon
[6] = system: U251 CNS
[7] = system: MALME-3M melanoma
[8] = system: TK-10 renal
[9] = system: NCI-H460 lung
[10] = system: UACC-257 melanoma
[11] = system: IGROV1 ovarian
[12] = system: T-47D breast
[13] = system: HOP-92 NSCLC
[14] = system: M14 melanoma
[15] = system: RPMI-8226 leukemia
[16] = system: COLO 205 colon
[17] = system: CCRF-CEM leukemia
[18] = system: ACHN renal
[19] = system: CAKI-1 renal
[20] = system: MOLT-4 leukemia
[21] = system: OVCAR-3 ovarian
[22] = system: HOP-62 NSCLC
[23] = system: HCT-15 colon
[24] = system: PC-3 prostate
[25] = system: OVCAR-8 ovarian
[26] = system: MDA-MB-435
[27] = system: A498 renal
[28] = system: HCC-2998 colon
[29] = system: OVCAR-4 ovarian
[30] = system: A549 NSCLC
[31] = system: HT29 colon
[32] = system: EKVX NSCLC
[33] = system: UO-31 renal
[34] = system: NCI-H522 lung
[35] = system: MDA-MB-231 breast
[36] = system: UACC-62 melanoma
[37] = system: NCI/ADR-RES ovarian
[38] = system: MCF7 breast
[39] = system: NCI-H23 lung
[40] = system: SK-MEL-28 melanoma
[41] = system: SK-MEL-2 melanoma
[42] = system: SW-620 colon
[43] = system: SK-OV-3 ovarian
[44] = system: RXF 393 renal
[45] = system: SK-MEL-5 melanoma
[46] = system: SR leukemia
[47] = system: 786-0 renal
[48] = system: OVCAR-5 ovarian
[49] = system: DU-145 prostate
[50] = system: K-562 leukemia
[51] = system: SF-268 CNS
[52] = system: BT-549 breast
[53] = system: LOX IMVI melanoma
[54] = system: SNB-19 CNS
[55] = system: SF-295 CNS
[56] = system: SNB-75 CNS
[57] = system: HCT-116 colon

Question: What does the source list for COC(=O)C(Cc1ccccc1)NC(=O)NC(=O)NC(=O)CI (centres undefined)?
Answer: GI50 [1]: 20.3 µM; TGI [1]: 53.3 µM; GI50 [2]: 11.8 µM; TGI [2]: 24.9 µM; GI50 [3]: 11.1 µM; TGI [3]: 39.3 µM; GI50 [4]: 34.3 µM; TGI [4]: > 100 µM; GI50 [5]: 15.8 µM; TGI [5]: 32.6 µM; GI50 [6]: 16.6 µM; TGI [6]: 30.5 µM; GI50 [7]: 1.55 µM; TGI [7]: 3.34 µM; GI50 [8]: 4.12 µM; TGI [8]: 14.7 µM; GI50 [9]: 22.6 µM; TGI [9]: 50.1 µM; GI50 [10]: 13.2 µM; TGI [10]: 26.5 µM; GI50 [11]: 3.05 µM; TGI [11]: 10.1 µM; GI50 [12]: 2.71 µM; TGI [12]: 8.5 µM; GI50 [13]: 2.51 µM; TGI [13]: 5.51 µM; GI50 [14]: 2.51 µM; TGI [14]: 7.45 µM; GI50 [15]: 2.69 µM; TGI [15]: 7.71 µM; GI50 [16]: 1.83 µM; TGI [16]: 3.56 µM; GI50 [17]: 1.14 µM; TGI [17]: 3.81 µM; GI50 [18]: 1.85 µM; TGI [18]: 3.62 µM; GI50 [19]: 2 µM; TGI [19]: 4.08 µM; GI50 [20]: 2 µM; TGI [20]: 5.21 µM; GI50 [21]: 2.97 µM; TGI [21]: 8.89 µM; GI50 [22]: 18 µM; TGI [22]: 33.7 µM; GI50 [23]: 1.66 µM; TGI [23]: 3.13 µM; GI50 [24]: 17.3 µM; TGI [24]: 33.1 µM; GI50 [25]: 4.3 µM; TGI [25]: 15.9 µM; GI50 [26]: 3.38 µM; TGI [26]: 13.8 µM; GI50 [27]: 18.4 µM; TGI [27]: 33.2 µM; GI50 [28]: 17.2 µM; TGI [28]: 33.3 µM; GI50 [29]: 4.41 µM; TGI [29]: 24.4 µM; GI50 [30]: 20.2 µM; TGI [30]: 38.9 µM; GI50 [31]: 14.2 µM; TGI [31]: 49.9 µM; GI50 [32]: 11.9 µM; TGI [32]: 25.3 µM; GI50 [33]: 1.83 µM; TGI [33]: 3.44 µM; GI50 [34]: 1.61 µM; TGI [34]: 3.38 µM; GI50 [35]: 5.2 µM; TGI [35]: 20.1 µM; GI50 [36]: 12.3 µM; TGI [36]: 26 µM; GI50 [37]: 19.8 µM; TGI [37]: 84.3 µM; GI50 [38]: 4.2 µM; TGI [38]: 28.5 µM; GI50 [39]: 6.79 µM; TGI [39]: 28.2 µM; GI50 [40]: 3.5 µM; TGI [40]: 13.8 µM; GI50 [41]: 16.4 µM; TGI [41]: 30.7 µM; GI50 [42]: 5.95 µM; TGI [42]: 21.7 µM; GI50 [43]: 15.8 µM; TGI [43]: 29.4 µM; GI50 [44]: 7.75 µM; TGI [44]: 20.2 µM; GI50 [45]: 15.5 µM; TGI [45]: 29 µM; GI50 [46]: 1.2 µM; TGI [46]: 3.67 µM; GI50 [47]: 3.35 µM; TGI [47]: 10.9 µM; GI50 [48]: 13 µM; TGI [48]: 29.7 µM; GI50 [49]: 12.1 µM; TGI [49]: 25.3 µM; GI50 [50]: 2.09 µM; TGI [50]: 5.08 µM; GI50 [51]: 14.1 µM; TGI [51]: 30.4 µM; GI50 [52]: 10 µM; TGI [52]: 21.8 µM; GI50 [53]: 1.56 µM; TGI [53]: 3.23 µM; GI50 [54]: 17.6 µM; TGI [54]: 36.4 µM; GI50 [55]: 16.4 µM; TGI [55]: 31.2 µM; GI50 [56]: 16.2 µM; TGI [56]: 36.7 µM; GI50 [57]: 3.27 µM; TGI [57]: 11.1 µM
